The results in this text go back to ChEMBL document CHEMBL4627307, “One-pot synthesis of thioxo-tetrahydropyrimidine derivatives as potent β-glucuronidase inhibitor, biological evaluation, molecular docking and molecular dynamics studies” (Bioorg Med Chem, 2020).

The target of this experiment is T1, Beta-glucuronidase (Homo sapiens, UniProt P08236).
T1 sequence (P08236 whole entry): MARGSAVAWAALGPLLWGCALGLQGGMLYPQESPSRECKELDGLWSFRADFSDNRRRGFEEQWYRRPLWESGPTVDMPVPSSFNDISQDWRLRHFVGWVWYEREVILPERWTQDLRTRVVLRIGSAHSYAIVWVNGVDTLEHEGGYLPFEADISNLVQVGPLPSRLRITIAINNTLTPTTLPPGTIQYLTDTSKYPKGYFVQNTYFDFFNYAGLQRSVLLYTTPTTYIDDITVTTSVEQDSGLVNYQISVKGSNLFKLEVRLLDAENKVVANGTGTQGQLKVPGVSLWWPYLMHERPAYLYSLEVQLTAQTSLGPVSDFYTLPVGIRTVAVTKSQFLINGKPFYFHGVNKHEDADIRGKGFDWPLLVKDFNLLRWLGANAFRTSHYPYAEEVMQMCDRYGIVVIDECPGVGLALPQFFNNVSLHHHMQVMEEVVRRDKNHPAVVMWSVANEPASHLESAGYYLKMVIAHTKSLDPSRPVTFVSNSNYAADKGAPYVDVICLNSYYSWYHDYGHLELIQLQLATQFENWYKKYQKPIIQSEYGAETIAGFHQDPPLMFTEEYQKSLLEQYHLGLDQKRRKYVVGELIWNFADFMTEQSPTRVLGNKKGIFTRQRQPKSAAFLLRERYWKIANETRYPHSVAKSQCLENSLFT
In words: Inhibition of beta-glucuronidase (unknown origin) using p-nitrophenyl-beta-D-glucuronide as substrate pre-incubated for 30 mins followed by substrate addition by spectrophotometric method.

Molecule `CCN(CC)C(=O)C1=C(C)N=C(S)NC1c1cccs1` (stereo unspecified) gave an IC50 of 350 nM.
